# Experiments:
# Experiment in all cases: cells
# Assay type in all cases: functional, cell-based
# Conditions in all cases: Homo sapiens
# D283 Med = test system: D283 Med
# Description: SANGER: Inhibition of human D-283MED cell growth in a cell viability assay.
# LAMA-84 = test system: LAMA-84;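 note: growth inhibition of LAMA-84 cells, read out with a cell viability assay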
# Description: SANGER: Inhibition of human LAMA-84 cell growth in a cell viability assay.
# MFM-223 = test system: MFM-223
# Description: SANGER: Inhibition of human MFM-223 cell growth in a cell viability assay.
# CP66-MEL = test system: CP66-MEL;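 note: growth inhibition of CP66-MEL cells determined in a cell viability assay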
# Description: SANGER: Inhibition of human CP66-MEL cell growth in a cell viability assay.
# BE-13 = test system: BE-13;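 note: growth inhibition of human BE-13 cells, measured with a cell viability assay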
# Description: SANGER: Inhibition of human BE-13 cell growth in a cell viability assay.
# MEG-01 = test system: MEG-01;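 note: growth inhibition of MEG-01 cells, read out by a cell viability assay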
# Description: SANGER: Inhibition of human MEG-01 cell growth in a cell viability assay.
# ES5 = test system: ES5;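 note: growth inhibition of human ES5 cells, read out by a cell viability assay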
# Description: SANGER: Inhibition of human ES5 cell growth in a cell viability assay.
# KNS-42 = test system: KNS-42;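 note: growth inhibition of KNS-42 cells, read out with a cell viability assay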
# Description: SANGER: Inhibition of human KNS-42 cell growth in a cell viability assay.
# NEC8 = test system: NEC8;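 note: growth inhibition of human NEC8 cells, read out by a cell viability assay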
# Description: SANGER: Inhibition of human NEC8 cell growth in a cell viability assay.
# D-502MG = test system: D-502MG
# Description: SANGER: Inhibition of human D-502MG cell growth in a cell viability assay.
# MC116 = test system: MC116;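 note: growth inhibition of MC116 cells, read out with a cell viability assay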
# Description: SANGER: Inhibition of human MC116 cell growth in a cell viability assay.
# NOS-1 = test system: NOS-1;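 note: growth inhibition of the human NOS-1 cell line, read out with a cell viability assay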
# Description: SANGER: Inhibition of human NOS-1 cell growth in a cell viability assay.
# KP-N-YS = test system: KP-N-YS;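 note: cell viability assay measuring inhibition of cell line growth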
# Description: SANGER: Inhibition of human KP-N-YS cell growth in a cell viability assay.
# RPMI-8226 = test system: RPMI-8226
# Description: SANGER: Inhibition of human RPMI-8226 cell growth in a cell viability assay.
# NTERA-2-cl-D1 = test system: NTERA-2-cl-D1;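 note: inhibition of cell growth, measured with a cell viability assay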
# Description: SANGER: Inhibition of human NTERA-S-cl-D1 cell growth in a cell viability assay.
# RH-1 = test system: RH-1;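 note: growth inhibition of human RH-1 cells, read out with a cell viability assay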
# Description: SANGER: Inhibition of human RH-1 cell growth in a cell viability assay.
# RS4-11 = test system: RS4-11;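 note: growth inhibition of RS4-11 cells, read out by a cell viability assay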
# Description: SANGER: Inhibition of human RS4-11 cell growth in a cell viability assay.
# LC-2-ad = test system: LC-2-ad;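 note: growth inhibition of human LC-2-ad cells, read out with a cell viability assay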
# Description: SANGER: Inhibition of human LC-2-ad cell growth in a cell viability assay.
# GOTO = test system: GOTO;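 note: growth inhibition of GOTO cells, read out by a cell viability assay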
# Description: SANGER: Inhibition of human GOTO cell growth in a cell viability assay.
# Calu-6 = test system: Calu-6;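 note: growth of human Calu-6 cells, read out by a cell viability assay, IC50 marking inhibition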
# Description: SANGER: Inhibition of human Calu-6 cell growth in a cell viability assay.
# SK-N-DZ = test system: SK-N-DZ;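 note: growth inhibition of the cancer cell line, read out through a viability assay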
# Description: SANGER: Inhibition of human SK-N-DZ cell growth in a cell viability assay.
# SK-LMS-1 = test system: SK-LMS-1;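 note: growth inhibition of human SK-LMS-1 cells, read out with a cell viability assay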
# Description: SANGER: Inhibition of human SK-LMS-1 cell growth in a cell viability assay.
# CTB-1 = test system: CTB-1
# Description: SANGER: Inhibition of human CTB-1 cell growth in a cell viability assay.
# SW 962 = test system: SW 962;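 note: growth inhibition of human SW962 cells, read out by a cell viability assay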
# Description: SANGER: Inhibition of human SW962 cell growth in a cell viability assay.
# HC-1 = test system: HC-1;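 note: growth inhibition of HC-1 cells measured by a cell viability assay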
# Description: SANGER: Inhibition of human HC-1 cell growth in a cell viability assay.
# COLO-684 = test system: COLO-684
# Description: SANGER: Inhibition of human COLO-684 cell growth in a cell viability assay.
# RKO = test system: RKO;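 note: growth inhibition of human RKO cells, read out with a cell viability assay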
# Description: SANGER: Inhibition of human RKO cell growth in a cell viability assay.
# NOMO-1 = test system: NOMO-1;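 note: growth inhibition of human NOMO-1 cells measured by a cell viability assay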
# Description: SANGER: Inhibition of human NOMO-1 cell growth in a cell viability assay.
# HCC1187 = test system: HCC1187;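 note: growth inhibition of HCC1187 cells, read out with a cell viability assay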
# Description: SANGER: Inhibition of human HCC1187 cell growth in a cell viability assay.
# HDLM-2 = test system: HDLM-2;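 note: cell viability assay measuring suppression of HDLM-2 proliferation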
# Description: SANGER: Inhibition of human HDLM-2 cell growth in a cell viability assay.
# NCI-H209 = test system: NCI-H209;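 note: growth inhibition of human NCI-H209 cells, measured by a cell viability assay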
# Description: SANGER: Inhibition of human NCI-H209 cell growth in a cell viability assay.
# DEL = test system: DEL;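 note: growth inhibition of the human DEL cell line, read out with a cell viability assay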
# Description: SANGER: Inhibition of human DEL cell growth in a cell viability assay.
# DJM-1 = test system: DJM-1;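 note: growth inhibition of human DJM-1 cells, read out by a cell viability assay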
# Description: SANGER: Inhibition of human DJM-1 cell growth in a cell viability assay.
# NCI-H1581 = test system: NCI-H1581;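 note: cell growth inhibition read out by a viability assay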
# Description: SANGER: Inhibition of human NCI-H1581 cell growth in a cell viability assay.
# NMC-G1 = test system: NMC-G1;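 note: growth inhibition of the NMC-G1 cell line, measured with a cell viability read-out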
# Description: SANGER: Inhibition of human NMC-G1 cell growth in a cell viability assay.
# CGTH-W-1 = test system: CGTH-W-1;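 note: growth inhibition of human CGTH-W-1 cells measured by cell viability assay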
# Description: SANGER: Inhibition of human CGTH-W-1 cell growth in a cell viability assay.
# KARPAS-45 = test system: KARPAS-45;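 note: inhibition of cell line growth, read out through a viability assay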
# Description: SANGER: Inhibition of human KARPAS-45 cell growth in a cell viability assay.
# OMC-1 = test system: OMC-1;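 note: growth inhibition of the OMC-1 cell line, measured by a cell viability assay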
# Description: SANGER: Inhibition of human OMC-1 cell growth in a cell viability assay.
# MZ7-mel = test system: MZ7-mel;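 note: growth inhibition of human MZ7-mel cells, measured by a cell viability assay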
# Description: SANGER: Inhibition of human MZ7-mel cell growth in a cell viability assay.
# Mo = test system: Mo
# Description: SANGER: Inhibition of human Mo-T cell growth in a cell viability assay.
# TE-12 = test system: TE-12;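 note: growth inhibition of TE-12 cells, read out by a cell viability assay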
# Description: SANGER: Inhibition of human TE-12 cell growth in a cell viability assay.
# HD-MY-Z = test system: HD-MY-Z;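 note: growth inhibition of HD-MY-Z cells, read out with a cell viability assay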
# Description: SANGER: Inhibition of human HD-MY-Z cell growth in a cell viability assay.
# EW-18 = test system: EW-18;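 note: growth inhibition of EW-18 cells, read out by a cell viability assay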
# Description: SANGER: Inhibition of human EW-18 cell growth in a cell viability assay.
# JVM-2 = test system: JVM-2;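 note: growth inhibition of JVM-2 cells determined by a cell viability assay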
# Description: SANGER: Inhibition of human JVM-2 cell growth in a cell viability assay.
# CW-2 = test system: CW-2;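 note: growth inhibition of CW-2 cells, read out by a cell viability assay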
# Description: SANGER: Inhibition of human CW-2 cell growth in a cell viability assay.
# MZ1-PC = test system: MZ1-PC;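 note: cell viability assay measuring growth inhibition of human MZ1-PC cells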
# Description: SANGER: Inhibition of human MZ1-PC cell growth in a cell viability assay.
# TE-8 = test system: TE-8;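 note: growth inhibition of TE-8 cells, measured with a cell viability readout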
# Description: SANGER: Inhibition of human TE-8 cell growth in a cell viability assay.
# SW872 = test system: SW872;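 note: growth inhibition of SW872 cells, read out by a viability assay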
# Description: SANGER: Inhibition of human SW872 cell growth in a cell viability assay.
# BB49-HNC = test system: BB49-HNC;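 note: cell viability assay read-out, reported as inhibition of BB49-HNC cell growth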
# Description: SANGER: Inhibition of human BB49-HNC cell growth in a cell viability assay.
# LS-513 = test system: LS-513
# Description: SANGER: Inhibition of human LS-513 cell growth in a cell viability assay.
# GCIY = test system: GCIY;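 note: growth inhibition of the human GCIY cell line, read out by a cell viability assay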
# Description: SANGER: Inhibition of human GCIY cell growth in a cell viability assay.
# EOL1 = test system: EOL1;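 note: growth inhibition of EoL-1 cells, read out by a cell viability assay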
# Description: SANGER: Inhibition of human EoL-1-cell cell growth in a cell viability assay.
# A704 = test system: A704;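 note: growth inhibition of human A704 cells, read out with a cell viability assay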
# Description: SANGER: Inhibition of human A704 cell growth in a cell viability assay.
# MZ2-MEL = test system: MZ2-MEL;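 note: growth inhibition of MZ2-MEL cells read out with a cell viability assay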
# Description: SANGER: Inhibition of human MZ2-MEL cell growth in a cell viability assay.
# IST-SL1 = test system: IST-SL1;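 note: growth inhibition of human IST-SL1 cells, read out with a cell viability assay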
# Description: SANGER: Inhibition of human IST-SL1 cell growth in a cell viability assay.
# ES7 = test system: ES7;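 note: growth inhibition of cultured human ES7 cells, read out as cell viability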
# Description: SANGER: Inhibition of human ES7 cell growth in a cell viability assay.
# SW684 = test system: SW684;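 note: growth inhibition of human SW684 cells, measured by a cell viability assay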
# Description: SANGER: Inhibition of human SW684 cell growth in a cell viability assay.
# EW-1 = test system: EW-1;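 note: growth inhibition of the human EW-1 cell line, read out by a cell viability assay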
# Description: SANGER: Inhibition of human EW-1 cell growth in a cell viability assay.
# EW-16 = test system: EW-16
# Description: SANGER: Inhibition of human EW-16 cell growth in a cell viability assay.
# DB = test system: DB
# Description: SANGER: Inhibition of human DB cell growth in a cell viability assay.
# CTV-1 = test system: CTV-1
# Description: SANGER: Inhibition of human CTV-1 cell growth in a cell viability assay.
# SBC-1 = test system: SBC-1
# Description: SANGER: Inhibition of human SBC-1 cell growth in a cell viability assay.
# EW-24 = test system: EW-24
# Description: SANGER: Inhibition of human EW-24 cell growth in a cell viability assay.
# NCI-H1155 = test system: NCI-H1155
# Description: SANGER: Inhibition of human NCI-H1155 cell growth in a cell viability assay.
# KE-37 = test system: KE-37
# Description: SANGER: Inhibition of human KE-37 cell growth in a cell viability assay.
# HT-144 = test system: HT-144
# Description: SANGER: Inhibition of human HT-144 cell growth in a cell viability assay.
smiles,measurement,setting,value
CC(O)(CS(=O)(=O)c1ccc(F)cc1)C(=O)Nc1ccc(C#N)c(C(F)(F)F)c1 (configuration not stated) [BICALUTAMIDE],IC50,D283 Med,> 1.02 µM
same,IC50,LAMA-84,> 1.02 µM
same,IC50,MFM-223,> 1.02 µM
same,IC50,CP66-MEL,> 1.02 µM
same,IC50,BE-13,> 1.02 µM
same,IC50,MEG-01,> 1.02 µM
same,IC50,ES5,> 1.02 µM
same,IC50,KNS-42,> 1.02 µM
same,IC50,NEC8,> 1.02 µM
same,IC50,D-502MG,> 1.02 µM
same,IC50,MC116,> 1.02 µM
same,IC50,NOS-1,> 1.02 µM
same,IC50,KP-N-YS,> 1.02 µM
same,IC50,RPMI-8226,> 1.02 µM
same,IC50,NTERA-2-cl-D1,> 1.02 µM
same,IC50,RH-1,> 1.02 µM
same,IC50,RS4-11,> 1.02 µM
same,IC50,LC-2-ad,> 1.02 µM
same,IC50,GOTO,> 1.02 µM
same,IC50,Calu-6,> 1.02 µM
same,IC50,SK-N-DZ,> 1.02 µM
same,IC50,SK-LMS-1,> 1.02 µM
same,IC50,CTB-1,> 1.02 µM
same,IC50,SW 962,> 1.02 µM
same,IC50,HC-1,> 1.02 µM
same,IC50,COLO-684,> 1.02 µM
same,IC50,RKO,> 1.02 µM
same,IC50,NOMO-1,> 1.02 µM
same,IC50,HCC1187,> 1.02 µM
same,IC50,HDLM-2,> 1.02 µM
same,IC50,NCI-H209,> 1.02 µM
same,IC50,DEL,> 1.02 µM
same,IC50,DJM-1,> 1.02 µM
same,IC50,NCI-H1581,> 1.02 µM
same,IC50,NMC-G1,> 1.02 µM
same,IC50,CGTH-W-1,> 1.02 µM
same,IC50,KARPAS-45,> 1.02 µM
same,IC50,OMC-1,> 1.02 µM
same,IC50,MZ7-mel,> 1.02 µM
same,IC50,Mo,> 1.02 µM
same,IC50,TE-12,> 1.02 µM
same,IC50,HD-MY-Z,> 1.02 µM
same,IC50,EW-18,> 1.02 µM
same,IC50,JVM-2,> 1.02 µM
same,IC50,CW-2,> 1.02 µM
same,IC50,MZ1-PC,> 1.02 µM
same,IC50,TE-8,> 1.02 µM
same,IC50,SW872,> 1.02 µM
same,IC50,BB49-HNC,> 1.02 µM
same,IC50,LS-513,> 1.02 µM
same,IC50,GCIY,> 1.02 µM
same,IC50,EOL1,> 1.02 µM
same,IC50,A704,> 1.02 µM
same,IC50,MZ2-MEL,> 1.02 µM
same,IC50,IST-SL1,> 1.02 µM
same,IC50,ES7,> 1.02 µM
same,IC50,SW684,> 1.02 µM
same,IC50,EW-1,> 1.02 µM
same,IC50,EW-16,> 1.02 µM
same,IC50,DB,> 1.02 µM
same,IC50,CTV-1,> 1.02 µM
same,IC50,SBC-1,> 1.02 µM
same,IC50,EW-24,> 1.02 µM
same,IC50,NCI-H1155,> 1.02 µM
same,IC50,KE-37,> 1.02 µM
same,IC50,HT-144,> 1.02 µM
N#C/C(=C1/Nc2ccccc2S1)c1ccnc(NCCc2cccnc2)n1,IC50,D283 Med,> 8 µM
same,IC50,LAMA-84,> 8 µM
same,IC50,MFM-223,> 8 µM
same,IC50,CP66-MEL,> 8 µM
same,IC50,BE-13,> 8 µM
same,IC50,MEG-01,> 8 µM
same,IC50,ES5,6.6 µM
same,IC50,KNS-42,> 8 µM
same,IC50,NEC8,> 8 µM
same,IC50,D-502MG,> 8 µM
same,IC50,MC116,3.17 µM
same,IC50,NOS-1,5.95 µM
same,IC50,KP-N-YS,> 8 µM
same,IC50,RPMI-8226,> 8 µM
same,IC50,NTERA-2-cl-D1,> 8 µM
same,IC50,RH-1,> 8 µM
same,IC50,RS4-11,3.93 µM
same,IC50,LC-2-ad,> 8 µM
same,IC50,GOTO,> 8 µM
same,IC50,Calu-6,> 8 µM
same,IC50,SK-N-DZ,> 8 µM
same,IC50,SK-LMS-1,7.38 µM
same,IC50,CTB-1,> 8 µM
same,IC50,SW 962,> 8 µM
same,IC50,HC-1,> 8 µM
same,IC50,COLO-684,> 8 µM
same,IC50,RKO,2.31 µM
same,IC50,NOMO-1,> 8 µM
same,IC50,HCC1187,1.81 µM
same,IC50,HDLM-2,> 8 µM
same,IC50,NCI-H209,> 8 µM
same,IC50,DEL,6.24 µM
same,IC50,DJM-1,> 8 µM
same,IC50,NCI-H1581,> 8 µM
same,IC50,NMC-G1,6.12 µM
same,IC50,CGTH-W-1,5.54 µM
same,IC50,KARPAS-45,6.3 µM
same,IC50,OMC-1,> 8 µM
same,IC50,MZ7-mel,> 8 µM
same,IC50,Mo,> 8 µM
same,IC50,TE-12,1.4 µM
same,IC50,HD-MY-Z,> 8 µM
same,IC50,EW-18,> 8 µM
same,IC50,JVM-2,> 8 µM
same,IC50,CW-2,> 8 µM
same,IC50,MZ1-PC,> 8 µM
same,IC50,TE-8,2.91 µM
same,IC50,SW872,1.32 µM
same,IC50,BB49-HNC,1.39 µM
same,IC50,LS-513,> 8 µM
same,IC50,GCIY,5.48 µM
same,IC50,EOL1,2.49 µM
same,IC50,A704,> 8 µM
same,IC50,MZ2-MEL,> 8 µM
same,IC50,IST-SL1,> 8 µM
same,IC50,ES7,3.03 µM
same,IC50,SW684,> 8 µM
same,IC50,EW-1,> 8 µM
same,IC50,EW-16,5.01 µM
same,IC50,DB,> 8 µM
same,IC50,CTV-1,2.85 µM
same,IC50,SBC-1,> 8 µM
same,IC50,EW-24,> 8 µM
same,IC50,NCI-H1155,> 8 µM
same,IC50,KE-37,> 8 µM
same,IC50,HT-144,> 8 µM
